According to patent US20220313698A1, “MODULATORS OF CYSTIC FIBROSIS TRANSMEMBRANE CONDUCTANCE REGULATOR” (Vertex Pharmaceuticals Incorporated, priority 2019, published 2022):
Where “and” joins values, the source holds several entries; their conditions need not be identical. Equal values may be shown once. Read-outs that look alike come from different tables or passages of the source. One block for each compound: values may come before it.

Experiments:
[1] = snar bond
[2] = target: T1, CFTR-mediated chloride transport (Homo sapiens, UniProt P13569); experiment: Corrector Assay A - membrane potential dye assay (enteroid cells); conditions: for Corrector Assay A % activity: % of chloride transport of triple combination control (1 μM (14S)-dispiro macrocycle + 3 μM tezacaftor + 300 nM ivacaftor); for EC50: read-out: Corrector Assay A EC50, human intestinal enteroid cells, 18-24 h incubation, acute 10 μM forskolin + 300 nM ivacaftor
[3] = target: T1, CFTR-mediated chloride transport; experiment: Corrector Assay B - membrane potential dye assay (enteroid cells); conditions: for Corrector Assay B % activity: % of chloride transport of triple combination control (3 μM Compound A + 3 μM tezacaftor + 300 nM ivacaftor); for EC50: read-out: Corrector Assay B EC50, human intestinal enteroid cells, 18-24 h incubation, acute 10 μM forskolin + 300 nM ivacaftor;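 on all read-outs here: methyl oxonol membrane potential fluorescence followed over 15 min after switching to chloride-free buffer with forskolin, 100 µM IBMX and ivacaftor, in presence of CaCC blockers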
[4] = from CC1(C)C[C@H](CCC(Nc2cccc(S(=O)(=O)NC(=O)c3ccc(C(C)(C)C)nc3F)n2)c2cccc(Br)n2)CN1, 15-membered ring, K2CO3, NMP, 21.9 mM, 165.0 °C, 16.0 h

Structure (SMILES): CC(C)(C)OC(=O)N1C[C@@H](CCC(c2ccccc2)n2ccc(S(=O)(=O)NC(=O)c3ccc(C(C)(C)C)nc3Cl)n2)CC1(C)C (some centres unmarked)
ring closure, yield after HPLC ([1]; the molecule shown is the open-chain precursor, 14-membered ring, K2CO3, NMP, 74.5 mM, 140.0 °C, 2 steps): 13%

Structure (SMILES): CC(C)(C)c1ccc2c(n1)N1CC(CC1(C)C)OCCNc1cccc(n1)S(=O)(=O)NC2=O (centres unmarked)
ring closure, yield after HPLC ([1]; from CC(C)(C)OC(=O)N1CC(OCCNc2cccc(S(=O)(=O)NC(=O)c3ccc(C(C)(C)C)nc3F)n2)CC1(C)C, 15-membered ring, K2CO3, NMP, 73.3 mM, 160.0 °C, 2 steps): 61%

Structure (SMILES): CC(C)(C)c1ccc2c(n1)N1C[C@@H](CCC(CCC(C3CC3)C3CC3)Nc3cccc(n3)S(=O)(=O)NC2=O)CC1(C)C (some centres unmarked)
ring closure, yield after HPLC ([1]; from CC(C)(C)OC(=O)N1C[C@@H](CCC(CCC(C2CC2)C2CC2)Nc2cccc(S(=O)(=O)NC(=O)c3ccc(C(C)(C)C)nc3F)n2)CC1(C)C, 15-membered ring, K2CO3, DMSO, 77.1 mM, 140.0 °C, 2 steps): 46%

Structure (SMILES): CC(C)(C)c1ccc2c(n1)N1C[C@@H](CCC(c3cc(Cl)ccn3)Nc3cccc(n3)S(=O)(=O)NC2=O)CC1(C)C (some centres unmarked)
ring closure, yield after HPLC ([1]; from CC(C)(C)OC(=O)N1C[C@@H](CCC(Nc2cccc(S(=O)(=O)NC(=O)c3ccc(C(C)(C)C)nc3F)n2)c2cc(Cl)ccn2)CC1(C)C, 15-membered ring, K2CO3, NMP, 142.0 mM, 140.0 °C, 2 steps): 43%

Structure (SMILES): CC(C)COc1cc(F)cc(-c2ccc3c(n2)N2C[C@@H](CCC(c4ccccn4)Nc4cccc(n4)S(=O)(=O)NC3=O)CC2(C)C)c1 (some centres unmarked)
ring closure, yield after HPLC ([1]; from CC(C)COc1cc(F)cc(-c2ccc(C(=O)NS(=O)(=O)c3cccc(NC(CC[C@@H]4CN(C(=O)OC(C)(C)C)C(C)(C)C4)c4ccccn4)n3)c(Cl)n2)c1, 15-membered ring, K2CO3, NMP, 38.2 mM, 140.0 °C, 2 steps): 18% and 31%

Structure (SMILES): CC1(C)CC2CC(c3ccccc3)CNc3cccc(n3)S(=O)(=O)NC(=O)c3ccc(-n4ccc(OCCC5(C(F)(F)F)CC5)n4)nc3N1C2 (centres unmarked)
ring closure, yield after HPLC ([1]; from CC(C)(C)OC(=O)N1CC(CC(CNc2cccc(S(=O)(=O)NC(=O)c3ccc(-n4ccc(OCCC5(C(F)(F)F)CC5)n4)nc3Cl)n2)c2ccccc2)CC1(C)C, 15-membered ring, K2CO3/4A MS, DMSO, 44.7 mM, 140.0 °C, 2 steps): 60%

Structure (SMILES): CCCC1(C)CC2CCCNc3cccc(n3)S(=O)(=O)NC(=O)c3ccc(-n4ccc(OCCC5(C(F)(F)F)CC5)n4)nc3N1C2 (centres unmarked)
ring closure, yield after HPLC ([1]; from CCCC1(C)CC(CCCNc2cccc(S(=O)(=O)NC(=O)c3ccc(-n4ccc(OCCC5(C(F)(F)F)CC5)n4)nc3Cl)n2)CN1, 15-membered ring, K2CO3, NMP, 20.9 mM, 150.0 °C, 16.0 h): 28%

Corrector Assay A % activity [2]: ++ (++ is 30-60%)
EC50 [2]: < 1 µM
Structure (SMILES): CC(C)(C)c1ccc2c(n1)N1C[C@@H](CC[C@@H](c3cccc(Br)n3)Nc3cccc(n3)S(=O)(=O)NC2=O)CC1(C)C (single isomer, unassigned) [Compound 214]
ring closure, yield after HPLC [1, 4]: 45%

Corrector Assay A % activity [2]: +++ (+++ is >60%)
EC50 [2]: < 1 µM
Structure (SMILES): CC(C)(C)c1ccc2c(n1)N1C[C@@H](CC[C@H](c3cccc(Br)n3)Nc3cccc(n3)S(=O)(=O)NC2=O)CC1(C)C (single isomer, unassigned) [Compound 215]
ring closure, yield after HPLC [1, 4]: 46%

Structure (SMILES): CC(C)(C)c1ccc2c(n1)N1C[C@@H](CCC(c3ccc(Cl)cn3)Nc3cccc(n3)S(=O)(=O)NC2=O)CC1(C)C (single isomer, unassigned; diastereomer 1)
ring closure, yield after HPLC ([1]; from CC1(C)C[C@H](CCC(Nc2cccc(S(=O)(=O)NC(=O)c3ccc(C(C)(C)C)nc3F)n2)c2ccc(Cl)cn2)CN1, 15-membered ring, K2CO3/3A MS, NMP, 78.4 mM, 150.0 °C, 4.0 h, 2 steps): 39%

Structure (SMILES): CC(C)C1CC[C@@H]2CN(c3nc(-n4ccc(OCCC5C6(CC6)C56CC6)n4)ccc3C(=O)NS(=O)(=O)c3cccc(n3)N1)C(C)(C)C2 (single isomer, unassigned; diastereomer 1)
ring closure, yield after HPLC ([1]; from CC(C)C(CC[C@H]1CNC(C)(C)C1)Nc1cccc(S(=O)(=O)NC(=O)c2ccc(-n3ccc(OCCC4C5(CC5)C45CC5)n3)nc2Cl)n1, 15-membered ring, K2CO3, NMP, 20.9 mM, 165.0 °C, 16.0 h): 68%

Structure (SMILES): CC(C)(C)c1ccc2c(n1)N1C[C@@H](CCC(c3ccc(Cl)cn3)Nc3cccc(n3)S(=O)(=O)NC2=O)CC1(C)C (single isomer, unassigned; diastereomer 2)
ring closure, yield after HPLC ([1]; from CC1(C)C[C@H](CCC(Nc2cccc(S(=O)(=O)NC(=O)c3ccc(C(C)(C)C)nc3F)n2)c2ccc(Cl)cn2)CN1, 15-membered ring, K2CO3/3A MS, NMP, 55.9 mM, 150.0 °C, 4.0 h, 2 steps): 34%

Structure (SMILES): CC(C)C1CC[C@@H]2CN(c3nc(-n4ccc(OCCC5C6(CC6)C56CC6)n4)ccc3C(=O)NS(=O)(=O)c3cccc(n3)N1)C(C)(C)C2 (single isomer, unassigned; diastereomer 2)
ring closure, yield after HPLC ([1]; from CC(C)C(CC[C@H]1CNC(C)(C)C1)Nc1cccc(S(=O)(=O)NC(=O)c2ccc(-n3ccc(OCCC4C5(CC5)C45CC5)n3)nc2Cl)n1, 15-membered ring, K2CO3, NMP, 23.0 mM, 165.0 °C, 16.0 h): 60%

Corrector Assay A % activity [2]: ++ (++ is 30-60%)
EC50 [2]: < 1 µM
Structure (SMILES): CC(C)(C)c1ccnc([C@H]2CC[C@@H]3CN(c4nc(Br)ccc4C(=O)NS(=O)(=O)c4cccc(n4)N2)C(C)(C)C3)c1 [Compound 55, (14S,17R)-8-bromo-17-(4-tert-butylpyridin-2-yl)-12,12-dimethyl-2λ^6-thia-3,9,11,18,23-pentaazatetracyclo[17.3.1.111,14.05,10]tetracosa-1(22),5,7,9,19(23),20-hexaene-2,2,4-trione]
ring closure, yield after HPLC ([1]; from CC1(C)C[C@@H](CCC(Nc2cccc(S(=O)(=O)NC(=O)c3ccc(Br)nc3Cl)n2)c2cc(C(C)(C)C)ccn2)CN1, 15-membered ring, K2CO3, DMA, 97.8 mM, 140.0 °C, 7.0 h): 23%

Corrector Assay A % activity [2]: + (+ is <30%)
EC50 [2]: > 3 µM
Structure (SMILES): CC1(C)C[C@@H]2CC[C@H](c3cccc(C(F)(F)F)n3)Nc3cccc(n3)S(=O)(=O)NC(=O)c3ccc(Br)nc3N1C2 [Compound 56, (14S,17R)-8-Bromo-12,12-dimethyl-17-[6-(trifluoromethyl)pyridin-2-yl]-2λ^6-thia-3,9,11,18,23-pentaazatetracyclo[17.3.1.111,14.05,10]tetracosa-1(22),5,7,9,19(23),20-hexaene-2,2,4-trione]
ring closure, yield after HPLC ([1]; from CC1(C)C[C@@H](CCC(Nc2cccc(S(=O)(=O)NC(=O)c3ccc(Br)nc3Cl)n2)c2cccc(C(F)(F)F)n2)CN1, 15-membered ring, K2CO3, DMA, 98.5 mM, 140.0 °C): 21%

Corrector Assay A % activity [2]: + (+ is <30%)
EC50 [2]: < 1 µM
Structure (SMILES): CC(C)(C)c1ccc2c(n1)N1C[C@@H](CCCn3ccc4ccc(cc43)S(=O)(=O)NC2=O)CC1(C)C [Compound 260, (5S)-11-tert-Butyl-7,7-dimethyl-17λ^6-thia-1,8,10,16-tetraazapentacyclo[16.5.2.15,8.09,14.021,24]hexacosa-9(14),10,12,18,20,22,24-heptaene-15,17,17-trione]
ring closure, yield after HPLC ([1]; from CC(C)(C)OC(=O)N1C[C@@H](CCCn2ccc3ccc(S(=O)(=O)NC(=O)c4ccc(C(C)(C)C)nc4Cl)cc32)CC1(C)C, 15-membered ring, K2CO3, NMP, 118.8 mM, 160.0 °C, 2 steps): 5%

Corrector Assay A % activity [2]: ++ (++ is 30-60%)
EC50 [2]: < 1 µM
Structure (SMILES): CC1(C)CCCc2cc3c(nc21)N1C[C@@H](CCCNc2cccc(n2)S(=O)(=O)NC3=O)CC1(C)C [Compound 265, (18S)-11,11,16,16-Tetramethyl-2λ^6-thia-3,13,15,22,27-pentaazapentacyclo[21.3.1.115,18.05,14.07,12]octacosa-1(27),5(14),6,12,23,25-hexaene-2,2,4-trione]
ring closure, yield after HPLC ([1]; from CC1(C)C[C@H](CCCNc2cccc(S(=O)(=O)NC(=O)c3cc4c(nc3Cl)C(C)(C)CCC4)n2)CN1, 15-membered ring, K2CO3/3A MS, NMP, 33.9 mM, 170.0 °C, 84.0 h, 2 steps): 11%

Corrector Assay B % activity [3]: +++ (+++ is >60%)
EC50 [3]: 1 to 3 µM
Structure (SMILES): CC1(C)C[C@@H]2CCCN(Cc3nn[nH]n3)c3cccc(n3)S(=O)(=O)NC(=O)c3ccc(-n4ccc(OCCC5(C(F)(F)F)CC5)n4)nc3N1C2 [Compound 372, (14S)-12,12-Dimethyl-18-[(2H-1,2,3,4-tetrazol-5-yl)methyl]-8-(3-{2-[1-(trifluoromethyl)cyclopropyl]ethoxy}-1H-pyrazol-1-yl)-2λ^6-thia-3,9,11,18,23-pentaazatetracyclo[17.3.1.111,14.05,10]tetracosa-1(23),5(10),6,8,19,21-hexaene-2,2,4-trione]
ring closure, yield after HPLC ([1]; from CC1(C)C[C@H](CCCN(Cc2nn[nH]n2)c2cccc(S(=O)(=O)NC(=O)c3ccc(-n4ccc(OCCC5(C(F)(F)F)CC5)n4)nc3Cl)n2)CN1, 15-membered ring, K2CO3/3A MS, DMSO, 25.8 mM, 155.0 °C, 18.0 h, 2 steps): 18%

Corrector Assay B % activity [3]: +++ (+++ is >60%)
EC50 [3]: < 1 µM
Structure (SMILES): CC1(C)C[C@@H]2CCCn3nnnc3CNc3cccc(n3)S(=O)(=O)NC(=O)c3ccc(-n4ccc(OCCC5(C(F)(F)F)CC5)n4)nc3N1C2 [Compound 380, (12S)-14,14-dimethyl-18-(3-{2-[1-(trifluoromethyl)cyclopropyl]ethoxy}-1H-pyrazol-1-yl)-24λ^6-thia-2,5,6,7,8,15,17,23,29-noNaazapentacyclo [23.3.1.112,15.04,8.016,21]triaconta-1(28),4,6,16,18,20,25(29),26-octaene-22,24,24-trione]
ring closure, yield after HPLC ([1]; from CC1(C)C[C@H](CCCn2nnnc2CNc2cccc(S(=O)(=O)NC(=O)c3ccc(-n4ccc(OCCC5(C(F)(F)F)CC5)n4)nc3Cl)n2)CN1, 18-membered ring, K2CO3/3A MS, DMSO, 35.1 mM, 155.0 °C, 16.0 h, 2 steps): 41%
